Assay [1] has as its system arginase. Conditions: cited from earlier work.
The target in the next assay is T1, liver arginase (Bos taurus, UniProt Q2KJ64).
T1 sequence (Q2KJ64 1-322): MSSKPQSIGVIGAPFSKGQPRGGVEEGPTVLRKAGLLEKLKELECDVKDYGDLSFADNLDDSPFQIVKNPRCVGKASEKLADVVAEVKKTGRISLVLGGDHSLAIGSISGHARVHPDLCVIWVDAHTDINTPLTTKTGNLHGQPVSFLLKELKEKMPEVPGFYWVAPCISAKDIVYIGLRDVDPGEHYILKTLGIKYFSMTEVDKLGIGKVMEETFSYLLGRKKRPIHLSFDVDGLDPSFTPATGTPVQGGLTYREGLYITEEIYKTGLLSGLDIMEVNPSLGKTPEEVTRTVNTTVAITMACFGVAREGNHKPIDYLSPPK
Conditions: cited from earlier work; for activity toward arginase: concentrations up to 2 mM.

The target of assay [2] is T2, arginase (Homo sapiens, UniProt P05089).
T2 sequence (P05089 1-322): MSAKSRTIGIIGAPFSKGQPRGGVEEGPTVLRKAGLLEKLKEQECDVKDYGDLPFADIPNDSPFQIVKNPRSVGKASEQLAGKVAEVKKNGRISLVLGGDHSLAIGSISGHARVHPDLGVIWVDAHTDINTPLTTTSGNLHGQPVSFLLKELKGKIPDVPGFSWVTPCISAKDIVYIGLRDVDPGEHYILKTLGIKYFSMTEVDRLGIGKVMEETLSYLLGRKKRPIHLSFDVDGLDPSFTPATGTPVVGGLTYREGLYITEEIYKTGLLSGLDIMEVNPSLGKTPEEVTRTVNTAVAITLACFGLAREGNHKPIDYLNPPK
Conditions: cited from earlier work; for pKi: competitive inhibitors of arginase.

In another assay the target is rat liver arginase (RLA) (Rattus norvegicus, UniProt P07824). Conditions: cited from earlier work; for pIC50: read-out: IC50 towards RLA.
Chain of rat liver arginase (RLA) (P07824 whole entry): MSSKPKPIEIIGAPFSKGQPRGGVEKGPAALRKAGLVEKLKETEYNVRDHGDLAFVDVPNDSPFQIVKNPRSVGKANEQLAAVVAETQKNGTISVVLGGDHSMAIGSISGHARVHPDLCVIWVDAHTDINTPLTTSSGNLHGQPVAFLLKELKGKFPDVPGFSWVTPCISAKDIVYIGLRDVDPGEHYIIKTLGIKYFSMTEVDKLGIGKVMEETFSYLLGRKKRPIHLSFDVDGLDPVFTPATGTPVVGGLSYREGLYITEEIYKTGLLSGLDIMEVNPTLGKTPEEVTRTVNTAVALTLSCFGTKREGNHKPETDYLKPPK
The target of assay [3] is arginase. Conditions: cited from earlier work. This is another data set of the same source.
In assay [4] the test system is RAW264.7 murine macrophage cells. As to the kind of experiment: urea production in RAW264.7 cells treated with LPS and IL-13. The format is cell-based. Conditions: 20 mM lysine; LPS/IL-13 treated RAW264.7; 400 μM arginine, 24 hour incubation. On the procedure:
Briefly, RAW264.7 macrophages exposed to media alone (Control) or CAT2-inducing conditions (LPS/IL-13) for 24 hours were then equilibrated for 2 hours in Arginine Transport Buffer. After a 24 hour incubation in the presence or absence of competing L-lysine in Arginine Transport Buffer containing a final arginine concentration of 400 μM, urea production was evaluated as described in Example 4. Urea production is expressed as μg of urea in the supernatant/mg of cell lysate protein.
RAW264.7 macrophages were stimulated in 24-well plates as for arginine transport studies (above). After 20 hours of stimulation, the cells were washed three times with Arg Wash Buffer #1 and then an additional four times with Arg Transport Buffer. […] Supernatants were clarified by centrifugation at 12,000 rpm for 10 minutes and 100 μl assayed for urea in triplicate using a UV absorbance kit method (R-Biopharma) following the manufacturer's instructions with the exception that it was performed at 1/10 scale in a 96-well assay plate with a total volume of 300 μl/well. Cells were lysed with 500 μl of 1.0% SDS in 10 mM HEPES, pH 7.4 and the protein quantitated using the Micro-BCA kit (Pierce). Urea production was expressed as μg urea/mg protein lysate.

The next assay has as its system rat tracheal explants. Kind of assay: carbachol-induced tracheal contraction. The note with it: 100 mM lysine; preincubated 15 to 20 hours. The procedure: Briefly, rat tracheal explants were preincubated for 15 to 20 hours with either media or media containing 100 mM L-lysine. The trachea were then washed and contraction measured in a Krebs-Henseleit solution in the presence or absence of 100 mM L-lysine.
Rats between 8-10 weeks of age were used for this experiment. Trachea were rapidly excised and cleaned of adherent connective tissue. […] Composition (mM) of the medium included 0.1 nonessential amino acids, 4% FBS, 2.0 glutamine, 0.05β-mercaptoethanol, 100 U/ml penicillin/100 μg/ml streptomycin.
Trachea were supported longitudinally by a rod with a stainless steel pin into the base of a double-jacketed, glass organ bath filled with 15 ml of Krebs-Henseleit (K-H) solution (37° C.) of the following composition (mM): 118 NaCl; 4.7 KCl; 1.2 KH2PO4; 11.1 Dextrose; 1.2 MgSO4; 2.8 CaCl2; and 25 NaHCO3. The solution was continuously gassed with a 5% CO2 and 95% O2 mixture for the duration of each experiment. The upper support was attached by a loop of silk thread to a TSD125 force transducer. […]
At the end of each experiment, all trachea were blotted on a gauze pad and weighted. Tensions were calculated as milligram tensions per milligram weight (mg/mg) and expressed as an individual percentage (%) of 10^−5 M carbachol-evoked force of the trachea in the absence of the drugs. All values were expressed as Mean ± SE. […]

The subject of the next assay is CAT2. As to the kind of experiment: arginine uptake in RAW264.7 cells treated with LPS and IL-13. The format is cell-based, murine. Conditions: 20 mM lysine; Control and LPS/IL-13 treated RAW264.7 cells; 100 μM arginine, three minutes. On the procedure:
Briefly, RAW264.7 cells were exposed to media alone (Control) or CAT2-inducing conditions (LPS/IL-13) for 24 hours and were then evaluated for arginine transport over a three-minute period in a final arginine concentration of 100 μM.
RAW264.7 cells, at 1×10^6, were plated on 24-well tissue culture plates in 0.5 ml cDME. After adhering for 2 hours, 0.5 ml media containing LPS (Sigma) and/or rhIL13 (R&D Systems) was added for final concentrations of 1 μg/ml and 10 ng/ml, respectively. After 20 hours incubation at 37° C. in an atmosphere of 5% CO2 and 95% air, the cells were washed 3 times with Arg Wash Buffer #1 (140 mM choline chloride, 5 mM KCl, 0.9 mM CaCl2, 1 mM MgSO4, 5.6 mM glucose, and 25 mM HEPES, pH7.4), then an additional 4 times with Arg Transport Buffer (137 mM choline chloride, 5.4 mM KCl, 1.8 mM CaCl2, 1.2 mM MgSO4, 10 mM HEPES, adjusted to pH7.4). […] Non-saturable binding was quantitated by incubating a replicate well of each treatment with transport buffer containing […]. […] Protein quantitation was performed using a micro-BCA kit (Pierce) and 400 μl lysate suspended in 10 ml scintillation fluid, loaded into glass scintillation vials, and emissions counted for 1 minute. Specific Arginine Uptake was calculated as Saturable binding (CPM/mg protein 400 μM Arg)— Non-saturable binding (CPM/mg protein 5 mM Arg).

Assay [5] concerns the target IL-13 (murine, endogenous in OVA-challenged Balb/c mice) (mouse) (UniProt P20109). As to the kind of experiment: cell-based or functional assay.

Data on 19 molecules can be found in US20040234517A1, “Compositions and methods for diagnosing and treating asthma or other allergic or inflammatory diseases” (WYETH, priority 2003, published 2004).

pIC50, pKi: −log10 of the molar value. Entries after “also recorded” stand apart in the source; their conditions may differ. Read-outs that look alike come from different tables or passages of the source.

Chain of IL-13 (murine, endogenous in OVA-challenged Balb/c mice) (mouse) (P20109 19-131 limits assumed): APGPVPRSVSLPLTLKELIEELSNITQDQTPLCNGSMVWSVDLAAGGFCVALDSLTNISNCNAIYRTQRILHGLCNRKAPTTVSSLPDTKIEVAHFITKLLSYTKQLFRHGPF

As for `N=C(NO)c1ccc(CC(N)C(=O)O)cc1` (racemic) [4-hydroxyamidino-D,L-phenylalanine], in the assay with arginase [1], the “inhibition of liver arginase and arginase in the alveolar macrophages” value is on record as “inhibit”.

For `NC(CCCCC(N)C(=O)O)=NO` (racemic) [N omega-hydroxy-D,L-indospicine], the “inhibition of liver arginase and arginase in the alveolar macrophages” value in the assay with arginase [1] is on record as “inhibit”.

As for `N=C(NO)NCCC[C@@H](N)C(=O)O` [D-NOHA], at liver arginase, the “effect on arginase relative to L-NOHA” value was “much less active”.

As to `O=C(O)CN(CCN(CC(=O)O)CC(=O)O)CC(=O)O` [EDTA], at arginase [2], the “inhibition of arginase activity” value is recorded as “do not inhibit”.

For `F` [F^−, fluoride], the pKi on rat liver arginase (RLA) (pH 7.4, uncompetitive towards L-Arg binding, reversible) is 2.89. Moreover, the pIC50 is 2.92 at rat liver arginase (RLA) (pH 7) and 1.72 at rat liver arginase (RLA) (pH 10).

`NC(=O)NCCC[C@H](N)C(=O)O` [L-Cit]: on liver arginase, the “effect on arginase relative to L-NOHA” value was “much weaker inhibitors” and the activity toward arginase entry is “inactive”.

Consider `N=C(NO)NCCC[C@H](N)C(=O)O` [L-NOHA, N(omega)-Hydroxy-L-arginine], for which, at liver arginase (arginase), the negative logarithm of the Ki (pKi) was 3.82. Moreover, the negative-log IC50 (pIC50) on arginase [3] (murine macrophages (Buga et al.), read-out: IC50 arginase activity) was 3.35; on arginase [3] (read-out: IC50 hydrolysis of L-arginine to L-ornithine, unstimulated murine macrophages (Tenu et al.)), 3.40.

`NCCC[C@H](N)C(=O)O` [L-omithine, L-ornithine]: the negative logarithm of the Ki (pKi) at arginase [2] is 2.70.

Consider `O=NO` [NO2^−], for which, on liver arginase, the “effect on arginase relative to L-NOHA” value is “without effect”.

Take `O=[N+]([O-])O` [NO3^−]: the “effect on arginase relative to L-NOHA” value at liver arginase is recorded as “without effect”.

`[N]=O` [NO, nitric oxide]: the “effect on arginase relative to L-NOHA” value on liver arginase is on record as “much weaker inhibitors”.

`OB(O)O` [borate]: the “inhibition of arginase activity” value at arginase [2] is “S-hyperbolic I-hyperbolic non-competitive inhibitor”.

Consider `O=C(O)CC(O)(CC(=O)O)C(=O)O` [citrate], for which the “inhibition of arginase activity” value at arginase [2] is reported as “do not inhibit”.

`N=C(N)N` [guanidinium chloride]: the pKi at arginase [2] is 1.00.

As to `NO` [hydroxylamine], the activity toward arginase result on liver arginase is “inactive”.

For the molecule `NC(=O)NO` [hydroxyurea], the activity toward arginase entry at liver arginase was “inactive”.

On to `NCCCC[C@H](N)C(=O)O` [lysine], for which the urea production result in [4] is listed as “inhibited”. In the assay on rat tracheal explants, the “carbachol-induced rat tracheal contraction” value is given as “inhibited”. In the assay on CAT2, the “arginine uptake / saturable arginine transport” value was “inhibited; also recorded: abolished all saturable arginine transport”.

For the molecule `NC(N)=O` [urea], the activity toward arginase result on liver arginase is “inactive”.

In assay [5], “soluble IL-13 receptor fusion protein sIL-13Rα2-Fc (from UniProt O88786 22-334) (Fc fusion)” returned an inhibition of allergen-induced Arg1 mRNA expression in mouse lung (GeneChip, in vivo) of 67%.

The term pKi denotes the negative decadic logarithm of the Ki, by convention in mol/L. What is called pIC50 is the IC50 on a negative log10 scale, so that one unit is a factor of ten.
